Experiment: xn = mol fraction of the nth substance listed
Settings: 101 kPa

c1ccc2sccc2c1 + CCCC[N+]1(C)CCCC1.N#C[C-](C#N)C#N
x1 = 1
Settings	viscosity [mPa·s]
308.15 K	2.94
318.15 K	2.06
328.15 K	1.74
338.15 K	1.49
348.15 K	1.29
358.15 K	1.14

CCCC[N+]1(C)CCCC1.N#C[C-](C#N)C#N + c1ccc2sccc2c1
viscosity [mPa·s]
Settings	x2 = 0	x2 = 0.1112	x2 = 0.2212	x2 = 0.3565	x2 = 0.5267	x2 = 0.6111	x2 = 0.6767
308.15 K	–	18.8	17	14.78	–	10.45	9.23
318.15 K	15.44	14.1	12.77	11.13	9.01	7.87	6.89
328.15 K	12	10.97	9.95	8.69	–	6.19	5.41
338.15 K	9.59	8.77	7.96	–	5.68	4.98	4.36
348.15 K	7.81	7.16	6.49	5.67	4.65	4.1	3.59
358.15 K	6.47	5.93	5.38	4.74	3.88	3.44	3.03

From a compilation of properties of binary mixtures (doi:10.1007/s10953-014-0257-1)
